Reference: PubChem BioAssay (NCI)
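In this assay, cells in 96-well plates receive the compound at five concentrations for 48 hours. Endpoints are linearly interpolated between the surrounding concentrations. At the TGI there is no net growth.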

What was measured:
Experiment in all cases: growth of human tumour cells (NCI), 48 h
[1] = test system: MALME-3M melanoma
[2] = test system: COLO 205 colon
[3] = test system: KM20L2 colon
[4] = test system: KM12 colon
[5] = test system: HCT-116 colon
[6] = test system: SK-OV-3 ovarian
[7] = test system: OVCAR-8 ovarian
[8] = test system: MOLT-4 leukemia
[9] = test system: CCRF-CEM leukemia
[10] = test system: HOP-18 NSCLC
[11] = test system: U251 CNS
[12] = test system: XF 498 CNS
[13] = test system: A549 NSCLC
[14] = test system: SK-MEL-5 melanoma
[15] = test system: SW-620 colon
[16] = test system: OVCAR-4 ovarian
[17] = test system: SNB-75 CNS
[18] = test system: OVCAR-3 ovarian
[19] = test system: M19-MEL melanoma
[20] = test system: NCI-H522 lung
[21] = test system: K-562 leukemia
[22] = test system: SF-295 CNS
[23] = test system: SF-539 CNS
[24] = test system: HT29 colon
[25] = test system: HCC-2998 colon
[26] = test system: NCI-H23 lung
[27] = test system: UACC-62 melanoma
[28] = test system: 786-0 renal
[29] = test system: SK-MEL-28 melanoma
[30] = test system: CAKI-1 renal
[31] = test system: ACHN renal
[32] = test system: OVCAR-5 ovarian
[33] = test system: HOP-92 NSCLC
[34] = test system: SNB-78 CNS
[35] = test system: M14 melanoma
[36] = test system: SNB-19 CNS
[37] = test system: DMS 114 small cell lung
[38] = test system: HOP-62 NSCLC
[39] = test system: HL-60(TB) leukemia
[40] = test system: EKVX NSCLC
[41] = test system: IGROV1 ovarian
[42] = test system: TK-10 renal
[43] = test system: UACC-257 melanoma
[44] = test system: A498 renal
[45] = test system: DMS 273 small cell lung
[46] = test system: RXF 393 renal
[47] = test system: LXFL 529 NSCLC
[48] = test system: SF-268 CNS
[49] = test system: HCT-15 colon
[50] = test system: SN12C renal
[51] = test system: SK-MEL-2 melanoma
[52] = test system: RPMI-8226 leukemia
[53] = test system: NCI-H226 lung
[54] = test system: DLD-1 colon
[55] = test system: NCI-H460 lung
[56] = test system: LOX IMVI melanoma
[57] = test system: UO-31 renal
[58] = test system: SR leukemia
[59] = test system: RXF-631 renal

## O=C(Sc1sc(=S)sc1SC(=O)c1ccccc1)c1ccccc1
[1]
  TGI: > 100 µM
[2]
  TGI: > 100 µM
[3]
  TGI: > 100 µM
[4]
  TGI: > 100 µM
[5]
  TGI: > 100 µM
[6]
  TGI: 41.4 µM
[7]
  TGI: > 100 µM
[8]
  TGI: > 100 µM
[9]
  TGI: > 100 µM
[10]
  TGI: > 100 µM
[11]
  TGI: 80.7 µM
[12]
  TGI: > 100 µM
[13]
  TGI: 70.6 µM
[14]
  TGI: > 100 µM
[15]
  TGI: > 100 µM
[16]
  TGI: > 100 µM
[17]
  TGI: 78.3 µM
[18]
  TGI: > 100 µM
[19]
  TGI: 51 µM
[20]
  TGI: > 100 µM
[21]
  TGI: > 100 µM
[22]
  TGI: > 100 µM
[23]
  TGI: > 100 µM
[24]
  TGI: > 100 µM
[25]
  TGI: > 100 µM
[26]
  TGI: > 100 µM
[27]
  TGI: 53 µM
[28]
  TGI: > 100 µM
[29]
  TGI: > 100 µM
[30]
  TGI: > 100 µM
[31]
  TGI: > 100 µM
[32]
  TGI: > 100 µM
[33]
  TGI: > 100 µM
[34]
  TGI: > 100 µM
[35]
  TGI: > 100 µM
[36]
  TGI: > 100 µM
[37]
  TGI: > 100 µM
[38]
  TGI: 72.4 µM
[39]
  TGI: > 100 µM
[40]
  TGI: > 100 µM
[41]
  TGI: > 100 µM
[42]
  TGI: > 100 µM
[43]
  TGI: > 100 µM
[44]
  TGI: 78 µM
[45]
  TGI: > 100 µM
[46]
  TGI: > 100 µM
[47]
  TGI: > 100 µM
[48]
  TGI: > 100 µM
[49]
  TGI: > 100 µM
[50]
  TGI: > 100 µM
[51]
  TGI: > 100 µM
[52]
  TGI: > 100 µM

## COC(=O)C(=O)C(CC(=O)Nc1cccc(C(F)(F)F)c1)C(=O)OC (stereo not given)
[1]
  TGI: > 100 µM
[2]
  TGI: > 100 µM
[53]
  TGI: > 100 µM
[3]
  TGI: > 100 µM
[5]
  TGI: > 100 µM
[54]
  TGI: > 100 µM
[6]
  TGI: > 100 µM
[7]
  TGI: > 100 µM
[8]
  TGI: > 100 µM
[9]
  TGI: > 100 µM
[11]
  TGI: > 100 µM
[13]
  TGI: > 100 µM
[14]
  TGI: > 100 µM
[15]
  TGI: > 100 µM
[16]
  TGI: > 100 µM
[17]
  TGI: > 100 µM
[19]
  TGI: > 100 µM
[20]
  TGI: > 100 µM
[21]
  TGI: > 100 µM
[23]
  TGI: > 100 µM
[25]
  TGI: > 100 µM
[26]
  TGI: > 100 µM
[27]
  TGI: > 100 µM
[28]
  TGI: > 100 µM
[29]
  TGI: > 100 µM
[30]
  TGI: > 100 µM
[55]
  TGI: > 100 µM
[31]
  TGI: > 100 µM
[32]
  TGI: > 100 µM
[33]
  TGI: > 100 µM
[34]
  TGI: > 100 µM
[35]
  TGI: > 100 µM
[36]
  TGI: > 100 µM
[37]
  TGI: > 100 µM
[38]
  TGI: > 100 µM
[39]
  TGI: > 100 µM
[40]
  TGI: > 100 µM
[41]
  TGI: > 100 µM
[42]
  TGI: > 100 µM
[44]
  TGI: > 100 µM
[46]
  TGI: > 100 µM
[56]
  TGI: > 100 µM
[47]
  TGI: > 100 µM
[48]
  TGI: > 100 µM
[49]
  TGI: > 100 µM
[50]
  TGI: > 100 µM
[51]
  TGI: > 100 µM
[52]
  TGI: > 100 µM
[57]
  TGI: > 100 µM

## O=C(CC1C(=O)Nc2ccccc2S1(=O)=O)Nc1cccc(Cl)c1 (stereo not given)
[1]
  TGI: 63.7 µM
[53]
  TGI: 35.8 µM
[3]
  TGI: 42.3 µM
[5]
  TGI: 32.1 µM
[54]
  TGI: 32.7 µM
[7]
  TGI: 33.1 µM
[8]
  TGI: 32.3 µM
[9]
  TGI: 47.2 µM
[11]
  TGI: 26.4 µM
[12]
  TGI: 41.5 µM
[13]
  TGI: 40.8 µM
[14]
  TGI: 35.8 µM
[15]
  TGI: 31.6 µM
[16]
  TGI: 36.6 µM
[17]
  TGI: 31.8 µM
[18]
  TGI: 29.6 µM
[19]
  TGI: 34.8 µM
[20]
  TGI: 31.7 µM
[21]
  TGI: 38.4 µM
[22]
  TGI: 54.3 µM
[23]
  TGI: 22.8 µM
[24]
  TGI: 32.3 µM
[25]
  TGI: 32.1 µM
[26]
  TGI: 37.9 µM
[27]
  TGI: 30.3 µM
[28]
  TGI: 29.1 µM
[29]
  TGI: 38.7 µM
[58]
  TGI: 40.7 µM
[30]
  TGI: 41.2 µM
[55]
  TGI: 31.8 µM
[31]
  TGI: 33.5 µM
[32]
  TGI: 59.1 µM
[33]
  TGI: 32.2 µM
[34]
  TGI: > 100 µM
[35]
  TGI: 42.1 µM
[36]
  TGI: 46.8 µM
[37]
  TGI: 30.6 µM
[39]
  TGI: 44.1 µM
[40]
  TGI: 42.2 µM
[41]
  TGI: 33.4 µM
[42]
  TGI: 46.6 µM
[43]
  TGI: 50 µM
[44]
  TGI: 39.1 µM
[45]
  TGI: 29.4 µM
[46]
  TGI: 31.7 µM
[56]
  TGI: 28.6 µM
[47]
  TGI: 38.3 µM
[59]
  TGI: 45.3 µM
[48]
  TGI: 30.1 µM
[49]
  TGI: 31.5 µM
[50]
  TGI: 29.5 µM
[51]
  TGI: 84 µM
[52]
  TGI: 24.1 µM
[57]
  TGI: 32.9 µM

## Cc1cc2c(C(C)C)c(O)c(O)c(C=Nc3ccccc3)c2c(O)c1-c1c(C)cc2c(C(C)C)c(O)c(O)c(C=Nc3ccccc3)c2c1O
[1]
  TGI: > 100 µM
[2]
  TGI: > 100 µM
[53]
  TGI: > 100 µM
[3]
  TGI: > 100 µM
[4]
  TGI: > 100 µM
[5]
  TGI: > 100 µM
[54]
  TGI: > 100 µM
[6]
  TGI: > 100 µM
[7]
  TGI: > 100 µM
[8]
  TGI: > 100 µM
[9]
  TGI: > 100 µM
[12]
  TGI: > 100 µM
[13]
  TGI: > 100 µM
[15]
  TGI: > 100 µM
[16]
  TGI: > 100 µM
[17]
  TGI: > 100 µM
[18]
  TGI: > 100 µM
[19]
  TGI: > 100 µM
[20]
  TGI: > 100 µM
[21]
  TGI: > 100 µM
[22]
  TGI: > 100 µM
[23]
  TGI: > 100 µM
[24]
  TGI: > 100 µM
[25]
  TGI: > 100 µM
[27]
  TGI: > 100 µM
[29]
  TGI: > 100 µM
[58]
  TGI: > 100 µM
[30]
  TGI: > 100 µM
[55]
  TGI: > 100 µM
[31]
  TGI: > 100 µM
[32]
  TGI: > 100 µM
[33]
  TGI: > 100 µM
[35]
  TGI: > 100 µM
[36]
  TGI: > 100 µM
[37]
  TGI: > 100 µM
[38]
  TGI: > 100 µM
[39]
  TGI: > 100 µM
[40]
  TGI: > 100 µM
[41]
  TGI: > 100 µM
[42]
  TGI: > 100 µM
[45]
  TGI: > 100 µM
[46]
  TGI: > 100 µM
[56]
  TGI: > 100 µM
[47]
  TGI: > 100 µM
[48]
  TGI: > 100 µM
[49]
  TGI: > 100 µM
[50]
  TGI: > 100 µM
[51]
  TGI: > 100 µM
[52]
  TGI: > 100 µM
[57]
  TGI: > 100 µM
